Structures can show the parent of a compound that is named as a salt. Where two headings read alike, the source gives them in different places.

The values below come from patent publication USRE39088E1, “Amide compounds and use of the same” (Japan Tobacco, Inc., priority 1995, dated 2006).

For one assay, the system named is IL-8. Description: Suppression of production of inflammatory cytokines: IL-8 in LPS-stimulated human peripheral blood monocytes (ELISA). The class given is cell-based. The following applies: supernatant 20 hours after LPS. As for the experimental part: (§1) Suppression of production of inflammatory cytokines
(§2) Thirty ml of human peripheral blood added with heparin was placed on Ficol-Paque (15 ml), and centrifuged at 400 G for 40 minutes at room temperature. The obtained monocyte fraction layers were collected and washed three times with E-MEM medium. The cells were adjusted to a final concentration of 0.5×10^5 cells/800 μl with RPMI-1640 medium containing 5% bovine fetal serum (2-mercaptoethanol), and seeded in a 24 well plant by 800 μl. A test sample (100 μl) was added and 100 μl of lipopolysarcharide (LPS, 100 μg/ml) was added one hour later. The supernatant was taken at 20 hours after stimulation with LPS, and amounts of various cytokines were determined using an ELISA kit.

The next assay relates to TNF-α. Description: Suppression of production of inflammatory cytokines: TNF-α in LPS-stimulated human peripheral blood monocytes (ELISA). The class given is cell-based. The following applies: Monocyte, read-out: IC50 (μM) TNF. As for the experimental part: as §1, §2
The test system of the next assay is IL-1. Kind of assay: Suppression of production of inflammatory cytokines: IL-1 in LPS-stimulated human peripheral blood monocytes (ELISA). The class given is cell-based. As to conditions: Monocyte, read-out: IC50 (μM) IL-1β. As for the experimental part:
as §1, §2

The test system of a further assay is ALT in blood. Kind of assay: Suppression of LPS/D-galactosamine-induced hepatitis. The following applies: tail vein, 10 minutes before LPS/D-galactosamine, ALT in blood at 6 hours, male C57BL/6 mice; for inhibition in vivo at 10 mg/kg / inhibition in vivo at 5 mg/kg: Mus musculus, iv. The class given is in vivo. As for the experimental part:
Suppression of LPS/D-galactosamine-induced hepatitis
LPS (5 μg/kg)D-galactosamine (500 mg/kg) in physiological saline was intraperitoneally injected to male C57BL/6 mice to induce hepatitis. Six hours after the injection of LPS/D-galactosamine in physiological saline, blood was taken from the mice orbital venosus plexus. Plasma was separated from the blood, and ALT in blood was determined by a biochemical analyzer. The test sample was administered from the tail vein at 10 minutes before the injection of LPS/D-galactosamine in physiological saline, and the degree of suppression was investigated. The suppression by the test sample is shown in the ratio relative to the suppression in the control group.
Suppression (%)=100-(ALT amount of group treated with test sample/ALT amount of control group)×100

In assay [1] the test system is TNF α in the peritoneal fluid. Kind of assay: Suppression of LPS-induced peritonitis. The class given is in vivo, male Balb/c mice. The following applies: test sample 50 mg/kg from the tail vein 60 minutes before LPS i.p.; TNF α in peritoneal fluid one hour after LPS, relative to control group; ** = p<0.01 from control. As for the experimental part: Suppression of LPS-induced peritonitis
LPS (30 μg/ml, 1 ml) prepared with physiological saline containing 0.5% CMC (carboxymethylcellulose) was infra-peritoneally injected into male Balb/c mice to induce-peritonitis. One hour later, the mice were killed with carbon dioxide, and the amount of TNF α in the peritoneal fluid was determined using an ELISA kit.
The test sample (50 mg/kg) was administered from the tail vein at 60 minutes before LPS injection, and the degree of suppression was investigated. The suppression by the test sample is shown in the ratio relative to the suppression in the control group.
Suppression (%)=100-(TNR amount of group treated with test sample/TNF amount of control group)×100
The results are shown in Table 89 wherein ** means the presence of significant difference by p<0.01 from the control group.

[2] abbreviates: LPS-stimulated human peripheral blood monocytes, supernatant 20 hours after LPS, ELISA.

As a reminder, the IC50 is the midpoint of a concentration-inhibition curve. As for `COC(=O)[C@H](Cc1ccccc1)NC(=O)c1ccc(OCCCN)cc1O` [Example 3], the IC50 is more than 30 µM in the assay on IL-8 (Homo sapiens, Monocyte, 20 h); 14 µM with TNF-α (setting [2]); more than 30 µM in the assay with IL-1 (setting [2]).

As usually defined, the inhibition in vivo is the percentage by which the read-out fell short of the control. Read a high inhibition in vivo as a response far below the control. In the assay on ALT in blood, `COC(=O)[C@H](Cc1ccccc1)NC(=O)c1cc(Cl)c(OCCN2CCN[C@@H](C)C2)c(Cl)c1OC(=O)c1ccccc1` [Example 123] registered an inhibition in vivo at 10 mg/kg of 41%.

On to `CCCCCCOC(=O)[C@H](Cc1ccccc1)NC(=O)c1cc(Cl)c(OCCCCNC)c(Cl)c1O` [Example 31], for which the IC50 in the assay on IL-8 (Homo sapiens, Monocyte, 20 h) was less than 0.01 µM. The compound further gave an inhibition in vivo at 5 mg/kg with ALT in blood (dose 5 mg/kg) of 87%.

In the case of `CCOC(=O)C(Cc1ccccc1)NC(=O)c1cc(Cl)c(OCCCCNC)c(Cl)c1O` (centres unmarked) [Example 22], the IC50 with IL-8 is less than 0.01 µM. The compound further registered an inhibition in vivo at 10 mg/kg in the assay with ALT in blood of 51%.

Compound `CCSC(=O)C(Cc1ccccc1)NC(=O)c1cc(Cl)c(OCCCCN)c(Cl)c1O.Cl` (centres unmarked) [Example 52] registered an IC50 in the assay with IL-8 (Homo sapiens, Monocyte, 20 h) of less than 0.01 µM. Further, the “Inhibition (%)” value in assay [1] is 31** %.

Turning to `CC(C)OC(=O)[C@H](Cc1ccccc1)NC(=O)c1cc(Cl)c(OCCCCN)c(Cl)c1O` [Example 27], the IC50 in the assay on IL-8 (Homo sapiens, Monocyte, 20 h) was less than 0.01 µM. The compound also came in with an inhibition in vivo at 10 mg/kg with ALT in blood of 67%.

In the assay on IL-8 (Homo sapiens, Monocyte, 20 h), `CNCCCCOc1c(Cl)cc(C(=O)N[C@@H](Cc2ccccc2)C(=O)OC)c(O)c1C` [Example 10] displayed an IC50 of 0.6 µM. The same compound displayed an inhibition in vivo at 10 mg/kg in the assay with ALT in blood of 77%.

Consider `CNCCCCOc1c(Cl)cc(C(=O)N[C@@H](Cc2ccccc2)C(=O)OC)c(OC(=O)c2ccccc2)c1Cl` [Example 105, N-[2-Benzoyloxy-3,5-dichloro-4-(4-methylaminobutoxy)benzoyl]-L-phenylalanine methyl ester hydrochloride], for which the IC50 was found to be 0.005 µM in the assay on IL-8 (Homo sapiens, Monocyte, 20 h); 0.004 µM with TNF-α (setting [2]); 0.001 µM in the assay on IL-1 (setting [2]). Also, at 10 mg/kg the inhibition in vivo in the assay with ALT in blood was 40%.

As for `NCCCCOc1c(Cl)cc(C(=O)N[C@@H](Cc2ccccc2)C(=O)OC2CCCCC2)c(O)c1Cl` [Example 45], the IC50 was determined as 0.004 µM with IL-8 (Homo sapiens, Monocyte, 20 h); 0.004 µM in the assay with TNF-α (setting [2]); 0.0008 µM with IL-1 (setting [2]). Moreover, in the assay on ALT in blood, the inhibition in vivo at 10 mg/kg stood at 30%.

Turning to `COC(=O)[C@H](Cc1ccccc1)NC(=O)c1ccc(OCCCCN)cc1O.Cl` [Example 4], the IC50 in the assay with IL-8 (Homo sapiens, Monocyte, 20 h) worked out at 2 µM; in the assay with TNF-α (setting [2]), 2 µM; in the assay with IL-1 (setting [2]) it was 3 µM. The “Inhibition (%)” value in assay [1] was 38** %. For the same compound, testing at 10 mg/kg in the assay on ALT in blood gave an inhibition in vivo of 42%.

Take `NCCCCOc1c(Cl)cc(C(=O)N[C@@H](Cc2ccccc2)C(=O)O)c(O)c1Cl` [Example 127]: the IC50 in the assay on IL-8 (Homo sapiens, Monocyte, 20 h) turned out to be 0.2 µM. The compound also gave an inhibition in vivo at 5 mg/kg with ALT in blood (dose 5 mg/kg) of 82%.

Turning to `COC(=O)[C@H](Cc1ccccc1)NC(=O)c1ccc(OCCCCCN)cc1O` [Example 5], the IC50 with IL-8 (Homo sapiens, Monocyte, 20 h) was 6 µM; in the assay with TNF-α (setting [2]) it was 6 µM; in the assay on IL-1 (setting [2]), 75 µM.

With `CNCCCCOc1cc(O)c(C(=O)N[C@@H](Cc2ccccc2)C(=O)OC)cc1Cl.Cl` [Example 9], in the assay with IL-8 (Homo sapiens, Monocyte, 20 h), the IC50 was less than 0.3 µM. Also, in assay [1], the “Inhibition (%)” value came to 21%.

With `Cl.NCCCCOc1c(Cl)cc(C(=O)N[C@@H](Cc2ccccc2)C(=O)Nc2ccccc2)c(O)c1Cl` [Example 138, N-[3,5-Dichloro-2-hydroxy-4-(4-aminobutoxy)benzoyl]-L-phenyl-alanylaminobenzene hydrochloride], inhibition with IL-8 was half-maximal at 1 µM (IC50). Moreover, in the assay with ALT in blood (dose 5 mg/kg), the “Inhibition (%)” value is reported as 22%.

In the assay on IL-8 (Homo sapiens, Monocyte, 20 h), `CNCCCCOc1c(Cl)cc(C(=O)N[C@@H](Cc2ccccc2)C(=O)OC2CCCCC2)c(O)c1Cl` [Example 46] showed an IC50 of less than 0.01 µM. In the assay with ALT in blood, this compound gave an inhibition in vivo at 10 mg/kg of 57%.

Consider `CCOC(=O)[C@H](Cc1ccccc1)NC(=O)c1ccc(-c2noc(CCCCNC)n2)cc1O.Cl` [Example 148, (2S)-3-Phenyl-2-[4-[5-(4-methylaminobutyl)-1,2,4-oxadizol-3-yl]-2-hydroxybenzoylamino]propionic acid ethyl ester hydrochloride], for which the midpoint of inhibition with IL-8, the IC50, lay at 4 µM. In addition, in assay [1], the “Inhibition (%)” value is 19%.

In the case of `COC(=O)[C@H](Cc1ccccc1)NC(=O)c1cc(Cl)c(OCCCCNC(=N)N)c(Cl)c1O` [Example 32], inhibition in the assay with IL-8 (Homo sapiens, Monocyte, 20 h) was half-maximal at 0.5 µM (IC50). In addition, at 10 mg/kg the inhibition in vivo with ALT in blood was 78%.

In the case of `COC(=O)[C@H](Cc1ccccc1)NC(=O)c1cc(Cl)c(OCCOCCN(C)C)c(Cl)c1O` [Example 37], the midpoint of inhibition in the assay with IL-8 (Homo sapiens, Monocyte, 20 h), the IC50, lay at 0.3 µM. In addition, 10 mg/kg produced 80% inhibition in vivo in the assay on ALT in blood.

On to `CNCCCCOc1c(Cl)cc(C(=O)N[C@@H](Cc2ccccc2)C(=O)OC)c(O)c1Cl.Cl` [Example 1, N-[3,5-Dichloro-2-hydroxy-4-(4-methylaminobutoxy)benzoyl]-L-phenylalanine methyl ester hydrochloride], for which the IC50 was 0.009 µM with IL-8 (Monocyte); 0.008 µM in the assay on TNF-α (Homo sapiens, 20 h); 0.002 µM in the assay on IL-1 (Homo sapiens, 20 h). For the same compound, the “Inhibition (%)” value in assay [1] was 64** %. Further, the inhibition in vivo at 5 mg/kg with ALT in blood (dose 5 mg/kg) is 88%. In addition, 10 mg/kg produced 78% inhibition in vivo in the assay on ALT in blood.

`COC(=O)[C@H](Cc1ccccc1)NC(=O)c1cc(Cl)c(OCCN2CCNC(C)C2)c(Cl)c1O` (some centres unmarked) [Example 60] displayed an IC50 with IL-8 (Homo sapiens, Monocyte, 20 h) of 0.03 µM. The same compound gave an inhibition in vivo at 10 mg/kg in the assay with ALT in blood of 42%.

As to `CCOC(=O)[C@H](Cc1ccccc1)NC(=O)c1cc(Cl)c(OC(=O)CCN2CCNCC2)c(Cl)c1O` [Example 155, N-[3,5-Dichloro-2-hydroxy-4-(3-piperazinylpropionyloxy)benzoyl]-L-phenylalanine ethyl ester dihydrochloride], in the assay on IL-8 (Monocyte), inhibition was half-maximal at 0.2 µM (IC50). Moreover, in assay [1], the “Inhibition (%)” value was 28** %.

As for `COC(=O)[C@H](Cc1ccccc1)NC(=O)c1cc(Cl)c(OCCN2CCN[C@@H](C)C2)c(Cl)c1O` [Example 61], in the assay on ALT in blood, 10 mg/kg produced 6% inhibition in vivo.

Compound `CNCCCCOc1c(Cl)cc(C(=O)N[C@@H](Cc2ccccc2)C(=O)NCC(=O)O)c(O)c1Cl` [Example 50] gave an IC50 in the assay with IL-8 (Homo sapiens, Monocyte, 20 h) of 28 µM. Also, testing at 10 mg/kg in the assay with ALT in blood gave an inhibition in vivo of 15%.

`CCOC(=O)C(Cc1ccccc1)NC(=O)c1cc(Cl)c(OCCCCN)c(Cl)c1O.Cl` (centres unmarked) [Example 19] yielded an IC50 in the assay with IL-8 (Homo sapiens, Monocyte, 20 h) of less than 0.01 µM. Further, in assay [1], the “Inhibition (%)” value was 32** %.

For the compound `COC(=O)[C@H](Cc1ccccc1)NC(=O)c1ccc(OCCCCCCN)cc1O` [Example 6], the IC50 worked out at 14 µM with IL-8 (Homo sapiens, Monocyte, 20 h); 6 µM in the assay on TNF-α (setting [2]); 14 µM in the assay with IL-1 (setting [2]).

Consider `CNCCCCOc1c(Cl)cc(C(=O)N[C@@H](Cc2ccccc2)C(=O)O)c(O)c1Cl` [Example 126, N-[3,5-Dichloro-2-hydroxy-4-(4-methylaminobutoxy)benzoyl]-L-phenylalanine hydrochloride], for which 0.8 µM corresponded to half-maximal inhibition in the assay with IL-8 (Homo sapiens, Monocyte, 20 h) (IC50). Further, 10 mg/kg produced 27% inhibition in vivo in the assay with ALT in blood.

Take `CCOC(=O)C(Cc1ccccc1)NC(=O)c1cc(Cl)c(OCCCCNC)c(Cl)c1OC(C)=O` (centres unmarked) [Example 117]: the IC50 with IL-8 (Homo sapiens, Monocyte, 20 h) was less than 0.01 µM. The compound further came in with an inhibition in vivo at 10 mg/kg in the assay with ALT in blood of 54%.

In the assay on IL-8 (Homo sapiens, Monocyte, 20 h), `CCOC(=O)[C@H](Cc1ccccc1)NC(=O)c1cc(Cl)c(OCCN2CCN(C)CC2)c(Cl)c1O` [Example 2, N-{3,5-Dichloro-2-hydroxy-4-[2-(4-methylpiperazin-1-yl)ethoxy]-benzoyl}-L-phenylalanine ethyl ester dihydrochloride] returned an IC50 of 0.01 µM. For the same compound, the inhibition in vivo at 10 mg/kg in the assay on ALT in blood stood at 65%.
